The values that follow come from PMC4250310 (Bioorganic & medicinal chemistry letters, 2014).

Converted amounts (≈) assume the structure as drawn.

The test system of one data set is PC12-G93A-YFP cell line. In words: cytotoxicity protection assay against mutant SOD1-induced cytotoxicity. It counts as cell-based. The note with it: read-out: Potency (EC50).
A short description of data set [1]: in vitro. To be noted: mouse, microsomes.
Data set [2] in a line: in vitro. The note with it: plasma.
For data set [3] the following is noted: ref our previous work; cited from earlier work.

What is called EC50 is the concentration that produces a half-maximal response. By solubility is commonly meant the dissolved amount per volume that the medium holds. A low value points to little dissolved substance. The term half-life denotes how long it takes for the measured level to halve. A low value points to rapid decline. Take `O=C1CC(=O)N(CCc2ccccc2)C(=O)N1CCc1ccccc1` [Compound 1, 1,3-bis(2-phenylethyl)pyrimidine-2,4,6(1H,3H,5H)-trione]: the concentration giving a half-maximal response (EC50) in the data set with PC12-G93A-YFP cell line was determined as 1680 nM. Besides, the concentration in solution in the data set “physchem” (solubility) was 31.3 µM (≈ 10.5 µg/mL). Besides, the half-life in the data set “in vitro [1]” came to 16 min; in the data set “in vitro [2]” it was 63.5 min. Besides, the maximum tolerated dose in data set [3] is reported as 100 mg/kg.
